The results in this text go back to US5780441A, “Sphingoglycolipid compounds and therapeutic uses thereof” (Kirin Beer Kabushiki Kaisha, priority 1993, dated 1998).

Experiment [1] relates to mixed lymphocyte culture reaction (spleen cells of C57BL/6 and BALB/C mice). Put plainly: Mixed lymphocyte culture reaction (MLR). Type of experiment: cell-based, mouse (C57BL/6 stimulator, BALB/C responder). To be noted: Mus musculus, Lymphocyte, 42 hours, read-out: MLR activating rate (%); for activity at 1 µg/mL: 1 × 10^0 μg/ml; for activity at 0.1 µg/mL: 1 × 10^-1 μg/ml. As to the method:
ii) Mixed lymphocyte culture reaction (MLR) of the compounds of the present invention
Spleen cells were prepared from C57BL/6 mice and treated with 50 μg/ml of mitomycin C for 30 minutes. The treated cells were used as stimulator cells, and the spleen cells of BALB/C mice as responder cells. 2×10^6 cells/ml of the both spleen cells were suspended in 10% FCS RPMI1640 as a culture medium. The above-described cells (50 μl/well) and a sample (10 μl/well) were added into wells of a round-bottomed 96 well plate, and cultured under the condition of 5% CO2 at 37° C. for 42 hours. 0.5 μCi/well of ^3 H-thymidine (^3 H-TdR) was added. After 8 hours, the cells were harvested, and the amount of uptaken ^3 H-TdR was measured by a liquid scintillation counter to calculate the ratio (%) of the uptake of ^3 H-TdR in the sample group to that in the vehicle group as the MLR activating rate.

In a further experiment the test system is mouse splenic lymphocyte. As to the kind of experiment: In vitro mouse splenic lymphocyte-proliferation-stimulating effect (3H-TdR uptake). Type of experiment: cell-based, mouse (BDF1 female). Particulars: Mus musculus, Splenic lymphocyte, 48 h, 2 days, read-out: Uptake of 3H-TdR (% of control), splenic lymphocytes; for activity at 1 µg/mL: 10^0 μg/ml; for activity at 0.1 µg/mL: 10^-1 μg/ml; for activity at 0.01 µg/mL: 10^-2 μg/ml; for activity at 0.001 µg/mL: 10^-3 μg/ml. As for the experimental part:
i) In vitro mouse splenic lymphocyte growth promoting effects of the present compounds
Experiment was performed with BDF1 female mice (6 weeks old) purchased from NIPPON SLC K.K. Spleens were removed from mice, and spleen cells were brayed with slide glasses and hemolized with NH4 Cl. 2×10^6cells/ml of the spleen cells which had been hemolized were suspended in 10% FCS RPMI 1640. The cell suspension (100 μl/well) and a vehicle or sample (10 μl/well) which was prepared so as to have a final level shown in Table 3 were added into wells of a round-bottomed 96 well plate, and cultured under the condition of 5% CO2 at 37° C. for 2 days. 0.5 μCi/well of ^3 H-thymidine (^3 H-TdR) was added. After 6 hours, the cells were harvested, and the amount of ^3 H-TdR uptaken into nucleus was measured by a liquid scintillation counter. The ratio (%) of the uptake of ^3 H-TdR in the sample group to that in the vehicle group was calculated and used as the in vitro mouse splenic lymphocyte-proliferation-stimulating rate.

A further experiment concerns mouse bone marrow cells. Put plainly: In vitro mouse bone marrow cell-proliferation-promoting effect (3H-TdR uptake). Type of experiment: cell-based, mouse (BDF1 female). Particulars: Mus musculus, Bone marrow cell, 96 h, 4 days, read-out: Uptake of 3H-TdR (% of control), bone marrow cells; for activity at 0.1 µg/mL: 10^-1 μg/ml; for activity at 0.01 µg/mL: 10^-2 μg/ml. As for the experimental part: In vitro mouse bone marrow cell-proliferation-promoting effect of the present compound
Experiment was performed with BDF1 female mice (6 weeks old) purchased from NIPPON SLC K.K. Bone marrow cells were removed from the femoral bone of mice by the conventional manner, floated on 10% FCS RPMI 1640, layered over Lympholite M, and centrifuged to give a monocyte fraction. 1×10^6 cells/ml of the monocyte fraction was suspended in 10% FCS RPMI 1640. The cell suspension (100 μl/well) and a vehicle or sample (10 μl/well) which was prepared so as to have a final level shown in Table 2 were added into a wells of round-bottomed 96 well plate, and cultured under the condition of 5% CO2 at 37° C. for 4 days. 0.5 μCi/well of ^3 H-thymidine (^3 H-TdR) was added. After 6 hours, the cells were harvested, and the amount of ^3 H-TdR uptaken into nucleus was measured by a liquid scintillation counter. The ratio of the uptake of ^3 H-TdR in the sample group to that in the vehicle group was calculated and used as the activation rate for promoting in vitro mouse bone marrow cell growth.

Experiment [2] relates to P388 mouse leukemia cells. Put plainly: Life-span-prolonging (anti-tumor) effect on mice subcutaneously inoculated with P388 mouse leukemia cells. The experiment is classed as in vivo, mouse (CDF1 female). Particulars: 0.1 mg/kg i.v. on days 1, 5 and 9; for Survival days ave. ± s. d.: all marked ** (p < 0.01); for response vs control in vivo at 0.1 mg/kg: Mus musculus, P388, iv, survival vs vehicle, read-out: T/C (%). As for the experimental part: i) Anti-tumor effect of the compound of the present invention on mice subcutaneously inoculated with P388 mouse leukemia cells.
Experiment was performed with CDF1 female mice (6 weeks) purchased from NIPPON SLC K.K., which were divided into groups consisting of 5 animals. […]. In this connection, lentinan and picibanil were administered intravenously on days 1, 3, 5, 7 and 9 after implantation, and sizofilan was administered subcutaneously on days 1 through 9. Statistical analysis was performed according to the Mann-Whiteney test.

In the case of `CCCCCCCCCCCCCCCCCCCC[C@@H](O)C(=O)N[C@@H](CO[C@H]1O[C@H](CO)[C@H](O)[C@H](O[C@@H]2O[C@@H]([C@H](O)CO)[C@H](O)[C@H]2O)[C@H]1O)[C@H](O)[C@H](O)CCCCCCCCCCCC` [Compound 10, O-β-D-galactofuranosyl-(1→3)-O-α-D-galactopyranosyl-(1→1)-(2S,3S,4R)-2-amino-N-[(R)-2-hydroxydocosanoyl]-1,3,4-hexadecanetriol], in experiment [1], the activity at 1 µg/mL turned out to be 174% and the activity at 0.1 µg/mL was determined as 132%. In addition, in the experiment on mouse splenic lymphocyte, the activity at 1 µg/mL came to 509%, the activity at 0.1 µg/mL was determined as 375%, the activity at 0.01 µg/mL is 277% and the activity at 0.001 µg/mL is 102%. Moreover, in the experiment with mouse bone marrow cells, the activity at 0.1 µg/mL was 286% and the activity at 0.01 µg/mL came to 147%. In experiment [2], the “Survival days ave. ± s. d.” value amounted to 13.8 ± 0.4 days and the response vs control in vivo at 0.1 mg/kg is 108%.
On to `CCCCCCCCCCCCCCCCCCCCC[C@@H](O)C(=O)N[C@@H](CO[C@H]1O[C@H](CO)[C@H](O)[C@H](O[C@@H]2O[C@@H]([C@H](O)CO)[C@H](O)[C@H]2O)[C@H]1O)[C@H](O)[C@H](O)CCCCCCCCCCCC` [Compound 11, O-β-D-galactofuranosyl-(1→3)-O-α-D-galactopyranosyl-(1→1)-(2S,3S,4R)-2-amino-N-[(R)-2-hydroxytricosanoyl]-1,3,4-hexadecanetriol], for which, in experiment [1], the activity at 1 µg/mL worked out at 225% and the activity at 0.1 µg/mL is 258%. Moreover, in the experiment on mouse splenic lymphocyte, the activity at 1 µg/mL turned out to be 646%, the activity at 0.01 µg/mL was 858% and the activity at 0.001 µg/mL stood at 116%. For the same compound, in the experiment on mouse bone marrow cells, the activity at 0.1 µg/mL worked out at 410% and the activity at 0.01 µg/mL turned out to be 281%. Further, in experiment [2], the “Survival days ave. ± s. d.” value stood at 13.4 ± 0.5 days and the response vs control in vivo at 0.1 mg/kg worked out at 105%.
Take `CCCCCCCCCCCCCCCCCCCCCC[C@@H](O)C(=O)N[C@@H](CO[C@H]1O[C@H](CO)[C@H](O)[C@H](O[C@@H]2O[C@@H]([C@H](O)CO)[C@H](O)[C@H]2O)[C@H]1O)[C@H](O)[C@H](O)CCCCCCCCCCCC` [Compound 12, O-β-D-galactofuranosyl-(1→3)-O-α-D-galactopyranosyl-(1→1)-(2S,3S,4R)-2-amino-N-[(R)-2-hydroxytetracosanoyl]-1,3,4-hexadecanetriol]: in experiment [1], the activity at 1 µg/mL stood at 203% and the activity at 0.1 µg/mL was found to be 187%. Besides, in the experiment with mouse splenic lymphocyte, the activity at 1 µg/mL came to 509%, the activity at 0.1 µg/mL was determined as 982%, the activity at 0.01 µg/mL was determined as 772% and the activity at 0.001 µg/mL is 113%. In the experiment with mouse bone marrow cells, the activity at 0.1 µg/mL was determined as 381% and the activity at 0.01 µg/mL stood at 378%. In experiment [2], the “Survival days ave. ± s. d.” value was 13.8 ± 0.8 days and the response vs control in vivo at 0.1 mg/kg stood at 108%.
`CCCCCCCCCCCCCCCCCCCCCC[C@@H](O)C(=O)N[C@@H](CO[C@H]1O[C@H](CO)[C@H](O)[C@H](O[C@@H]2O[C@@H]([C@H](O)CO)[C@H](O)[C@H]2O)[C@H]1O)[C@H](O)[C@H](O)CCCCCCCCCCC(C)C` [Compound 13, O-β-D-galactofuranosyl-(1→3)-O-α-D-galactopyranosyl-(1→1)-(2S,3S,4R)-2-amino-N-[(R)-2-hydroxytetracosanoyl]-15-methyl-1,3,4-hexadecanetriol]: in experiment [1], the activity at 1 µg/mL came out at 276% and the activity at 0.1 µg/mL was found to be 248%. Also, in the experiment on mouse splenic lymphocyte, the activity at 1 µg/mL was 788% and the activity at 0.001 µg/mL was 227%. For the same compound, in the experiment with mouse bone marrow cells, the activity at 0.1 µg/mL came out at 546% and the activity at 0.01 µg/mL was found to be 395%. In experiment [2], the “Survival days ave. ± s. d.” value is given as 14.6 ± 0.5 days and the response vs control in vivo at 0.1 mg/kg worked out at 114%.
For the compound `CCCCCCCCCCCCCCCCCCCCCC[C@@H](O)C(=O)N[C@@H](CO[C@H]1O[C@H](CO)[C@H](O)[C@H](O[C@@H]2O[C@@H]([C@H](O)CO)[C@H](O)[C@H]2O)[C@H]1O)[C@H](O)[C@H](O)CCCCCCCCCCCCC` [Compound 14, O-β-D-galactofuranosyl-(1→3)-O-α-D-galactopyranosyl-(1→1)-(2S,3S,4R)-2-amino-N-[(R)-2-hydroxytetracosanoyl]-1,3,4-heptadecanetriol], in experiment [1], the activity at 1 µg/mL was 261% and the activity at 0.1 µg/mL was found to be 232%. In addition, in the experiment with mouse splenic lymphocyte, the activity at 1 µg/mL stood at 640% and the activity at 0.001 µg/mL was 252%. Besides, in the experiment with mouse bone marrow cells, the activity at 0.1 µg/mL was determined as 838% and the activity at 0.01 µg/mL was found to be 659%. Also, in experiment [2], the “Survival days ave. ± s. d.” value amounted to 13.8 ± 0.4 days and the response vs control in vivo at 0.1 mg/kg amounted to 108%.
`CCCCCCCCCCCCCCCCCCCCCC[C@@H](O)C(=O)N[C@@H](CO[C@H]1O[C@H](CO)[C@H](O)[C@H](O[C@@H]2O[C@@H]([C@H](O)CO)[C@H](O)[C@H]2O)[C@H]1O)[C@H](O)[C@H](O)CCCCCCCCCCCC(C)C` [Compound 15, O-β-D-galactofuranosyl-(1→3)-O-α-D-galactopyranosyl-(1→1)-(2S,3S,4R)-2-amino-N-[(R)-2-hydroxytetracosanoyl]-16-methyl-1,3,4-heptadecanetriol]: in experiment [1], the activity at 1 µg/mL was determined as 295% and the activity at 0.1 µg/mL turned out to be 253%. Besides, in the experiment on mouse splenic lymphocyte, the activity at 1 µg/mL was found to be 845% and the activity at 0.001 µg/mL worked out at 394%. Further, in the experiment with mouse bone marrow cells, the activity at 0.1 µg/mL was found to be 501% and the activity at 0.01 µg/mL was found to be 291%. Also, in experiment [2], the “Survival days ave. ± s. d.” value was 14.0 ± 0 days and the response vs control in vivo at 0.1 mg/kg came out at 109%.
Take `CCCCCCCCCCCCCCCCCCCCCC[C@@H](O)C(=O)N[C@@H](CO[C@H]1O[C@H](CO)[C@H](O)[C@H](O[C@@H]2O[C@@H]([C@H](O)CO)[C@H](O)[C@H]2O)[C@H]1O)[C@H](O)[C@H](O)CCCCCCCCCCCCCC` [Compound 16, O-β-D-galactofuranosyl-(1→3)-O-α-D-galactopyranosyl-(1→1)-(2S,3S,4R)-2-amino-N-[(R)-2-hydroxytetracosanoyl]-1,3,4-octadecanetriol]: in experiment [1], the activity at 1 µg/mL amounted to 274% and the activity at 0.1 µg/mL was determined as 262%. Also, in the experiment with mouse splenic lymphocyte, the activity at 1 µg/mL was found to be 740% and the activity at 0.001 µg/mL was determined as 702%. Further, in the experiment on mouse bone marrow cells, the activity at 0.1 µg/mL was 325% and the activity at 0.01 µg/mL stood at 296%. In experiment [2], the “Survival days ave. ± s. d.” value turned out to be 14.8 ± 0.8 days and the response vs control in vivo at 0.1 mg/kg was 116%.
